Series [1] has as its system E. coli expressing P. alba variant 1 IspS. The series is described as follows: DMAPP toxicity relief: growth in presence of MVA. The settings on record: 15 to 75 mM MVA; FIG. 13.
In series [2] the test system is E. coli expressing A. hypogaea IspS. The series is described as follows: DMAPP toxicity relief: growth in presence of MVA. The settings on record: FIG. 13.
Series [3] relates to E. coli expressing P. alba variant 3 IspS. The series is described as follows: DMAPP toxicity relief: growth in presence of MVA. The settings on record: FIG. 13.
Series [4] relates to E. coli expressing P. alba variant 2 IspS.
Series [5] addresses Populus alba isoprene synthase, P. alba variant 1 (Populus alba, UniProt Q50L36). Format: biochemical. The settings on record: substrate DMAPP; 34° C.; Avg Value.
Series [6] concerns the target Populus alba isoprene synthase, P. alba variant 2 (Populus alba, UniProt Q50L36). Format: biochemical. The settings on record: substrate DMAPP; 34° C.; Avg Value.
Substrate in series [7]: CC(C)=CCOP(=O)(O)OP(=O)(O)O
The series is described as follows: purified protein, by the assay type. Particulars: other: substrate DMAPP, 34° C., Avg Value.

As for `C[C@@](O)(CCO)CC(=O)O` [MVA, mevalonic acid], the “Growth inhibition by MVA” value in series [1] is on record as “growth was inhibited at any concentration of MVA tested”. The “MVA concentration at which significant growth was seen” value in series [2] was 15 to 45 mM. The “MVA concentration at which growth was partially inhibited” value in series [3] is recorded as “at least 30 mM”. The “MVA concentration at which growth was inhibited” value in series [4] is “higher than 15 mM”.

By Km is commonly meant the concentration of substrate that gives half-maximal velocity. On to `CC(C)=CCOP(=O)(O)OP(=O)(O)O` [DMAPP, 3,3-dimethylallyl diphosphate], for which the values for the Km in series [5] and in series [6] were 2790 µM and 2880 µM, respectively.

B1: Arachis hypogaea isoprene synthase (A. hypogaea IspS), SEQ ID NO: 3 (Arachis hypogaea) (protein)
chain: MNTRRSANYQPNLWDFEFLQSVENDLQVERLEERARKLEEEVRGLMKKVEIEPLSLLELMDNVERLGLTYKFEEDIKSALNNRIVPLLHHHTINKYGLHATALSFRFLRQHAFHVSPDVFESFKEEGKFKKEISGDVLGLLNLYETSYLGFEGETILDEARAFSATHLKNLLQTNQVQNKVMAEKVRHALELPYHRRVHRLEARWFIERYEQKEAHDGALLELAKLDFNMVQSVMKKELQELSRWWREIGLTSKLDFVRDRLMEVYFWALGMAPHPQLTECRKAVTKMFGLVTIIDDVYDVYGTLDELQLFTDAVDRWDVNAVETLPDYMKLCYLALYNSVNDTAYSTLREKGDNSLPHLAKSWRDLCKAFLQEAKWSNNKIIPPFDAYIRNASVSSSGGALLAPCYFSVTQDSTSQAIDSITNYHGIVRSSCAIFRLCNDLATSAAELERGETTNSITSYMTENGTTEEEARESLGKLIDQEWKKMNRDVVLESAYPNVFKEIAINMARVSHCTYQYGDGLGRPDDTAENRIKLSLIEPIPIN
Take B1: the Km in series [7] amounted to 18300 µM.

B2: Populus alba isoprene synthase (P. alba IspS), wild type (WT) (Populus alba) (protein)
chain: MEARRSANYEPNSWDYDYLLSSDTDESIEVYKDKAKKLEAEVRREINNEKAEFLTLLELIDNVQRLGLGYRFESDIRGALDRFVSSGGFDAVTKTSLHGTALSFRLLRQHGFEVSQEAFSGFKDQNGNFLENLKEDIKAILSLYEASFLALEGENILDEAKVFAISHLKELSEEKIGKELAEQVNHALELPLHRRTQRLEAVWSIEAYRKKEDANQVLLELAILDYNMIQSVYQRDLRETSRWWRRVGLATKLHFARDRLIESFYWAVGVAFEPQYSDCRNSVAKMFSFVTIIDDIYDVYGTLDELELFTDAVERWDVNAINDLPDYMKLCFLALYNTINEIAYDNLKDKGENILPYLTKAWADLCNAFLQEAKWLYNKSTPTFDDYFGNAWKSSSGPLQLVFAYFAVVQNIKKEEIENLQKYHDTISRPSHIFRLCNDLASASAEIARGETANSVSCYMRTKGISEELATESVMNLIDETWKKMNKEKLGGSLFAKPFVETAINLARQSHCTYHNGDAHTSPDELTRKRVLSVITEPILPFER
Regarding B2, the Km in series [7] amounted to 2830 µM.

These data come from patent US8895277B2, “Legume isoprene synthase for production of isoprene” (Danisco US Inc., priority 2012, dated 2014).
